Measured values taken from patent US20070066636A1, “POLYMORPHS OF TARTRATE SALT OF 2-[2-(3-(R)-AMINO-PIPERIDIN-1-YL)-5-FLUORO-6-OXO-6H-PYRIMIDIN-1-YLMETHYL]-BENZONITRILE AND METHODS OF USE THEREFOR” (priority 2005, published 2007).
Where a name gives a salt, the structure may show the parent alone. One block for each compound: values may come before it.

Key:
Assay type in all cases: physicochemical
[1] = Solubility estimates in different solvents; conditions: thermodynamic from solid, ambient temperature, visual estimate
Experimental: A weighed sample (typically about 20 mg) of Compound I form A was treated with aliquots of the test solvent at ambient temperature. The aliquot volumes were typically 250 μL. Periodically, the mixture was sonicated between additions to facilitate dissolution. Complete dissolution of the test material was determined by visual inspection. Solubilities were estimated from these experiments based on the total solvent used to provide complete dissolution. […] If dissolution occurred after the last aliquot was added then solubility is expressed as “greater than or equal to” (≧). The solubility values for Compound I (Table 4) have been rounded to the nearest whole number. The true equilibrium solubilities for the compound may be different than the values provided here because of the use of solvent aliquots that were too large or due to a slow rate of dissolution.

[2] = Moisture sorption/desorption analysis; conditions: for solid form of post moisture sorption/desorption sample by XRPD: after 5%-95%-5% RH cycle; for molecules of water present for every molecule of compound: at 95% RH, calculated from desorption weight change and molecular weight; for Weight Change: 25 C
Experimental: Moisture sorption/desorption data were collected on a VTI SGA-100 Vapor Sorption Analyzer. Sorption and desorption data were collected over a range of 5% to 95% relative humidity (RH) at 10% RH intervals under a nitrogen purge. Sodium chloride (NaCl) and polyvinylpyrrolidone (PVP) were used as the calibration standards. Equilibrium criteria used for analysis were less than 0.0100% weight change in 5 minutes, with a maximum equilibration time of 180 minutes if the weight criterion was not met. The plotted data that contain the percent weight change values at various RH intervals are relative to the initial weight of the sample. The plotted data have not been corrected for the initial moisture content. However, the weight gain data provided in the tables for the various relative humidity ranges are calculated using the sample weight at the beginning of the particular RH event as the initial weight. In particular, the equilibration event wt. % change from initial wt. to 5% RH was calculated as [(wt at 5% RH−initial wt.)/initial wt.]*100; and the sorption event wt. % change from 5% RH to 95% RH was calculated as [(wt. at 95% RH−wt at 5% RH)/wt at 5% RH]*100; and the desorption event wt. % change from 95% RH to 5% RH was calculated as [(wt. at 5% RH−wt at 95% RH)/wt at 95% RH]*100. This type of analysis permits direct comparison of the experimental weight changes to the theoretical values predicted for the inter-conversion of anhydrates to hydrated forms.

[3] = Relative humidity (RH) stress of solids, XRPD; conditions: for XRPD Pattern after RH stress: ambient, 21 d
Experimental: Relative Humidity (RH) Stress: Open vials containing solid samples were placed inside chambers containing saturated salt solutions along with a small amount of the undissolved salt. The chambers were sealed and allowed to stand at ambient temperature for several weeks. Samples were analyzed by X-ray powder diffraction (XRPD) immediately after removing the sample from the RH chamber. The RH values for these salt solutions were obtained from an ASTM standard. See a) “Preparation and Use of Relative Humidity Chambers” SSCI Method MTD 032.01 Mar. 3, 2003; and b) “Standard Practice for Maintaining Constant Relative Humidity by Means of Aqueous Solutions” ASTM Standard E 104-02 (2002).

[4] = Slurry interconversion studies in methanol; conditions: room temperature; for XRPD Result after slurry: slurry time 5 days
Experimental: Slurry Experiments: Enough Compound I was added to a given solvent so that undissolved solids were present. The mixture was then agitated in a sealed vial at ambient temperature using either an orbital shaker or a rotating wheel. After several days the solids were isolated by vacuum filtration and allowed to dry at ambient temperature in the fume hood with the cap for the sample vial loosened.
In order to determine the relative stability of the polymorphs Compound I form A was slurried in separate experiments with roughly equal amounts of forms B, C and E in methanol at room temperature. After 12 days the solids were isolated and form A was recovered as the exclusive solid phase (Table 6). In addition to these experiments, slurries of forms B, C and D in the absence of other solid phases provided form A when slurried for 5 days in methanol at room temperature. […] It should be noted that the hydration states of these solid phases may be different for the different forms, which precludes an analysis of the true thermodynamic stability ordering through slurry experiments.

[5] = Thermal analysis (TGA/DSC), thermal stability
Experimental: Thermogravimetric analyses (TGA) were carried out on a TA Instruments 2950 thermogravimetric analyzer. The calibration standards were nickel and Alumel™. Samples were placed in an aluminum sample pan, inserted into the TG furnace, and accurately weighed. The samples were heated in a stream of nitrogen at a rate of 10° C./min. The temperature of the furnace was equilibrated at 25° C. prior to the analysis of the samples. The percent mass loss values provided in the tables are rounded to the nearest 0.1%.
Differential scanning calorimetry (DSC) analyses were carried out on a TA Instruments differential scanning calorimeter 2920. Accurately weighed samples were placed in either crimped pans, crimped pans with manual pinhole or uncrimped pans to allow for pressure release. Each sample was heated under nitrogen at a rate of 10° C./min to 350° C. Indium metal was used as the calibration standard. Temperatures are reported at the transition maxima and reported to one decimal place, and the integrated events are expressed in J/g and rounded to the nearest whole number.

[6] = desorption, 95% RH to about 5% RH, Tables 2A, 2B (relative to weight at start of the event)
[7] = equilibration, initial weight to about 5% RH, Tables 2A, 2B (relative to weight at start of the event)
[8] = sorption, 5% RH to about 95% RH, Tables 2A, 2B (relative to weight at start of the event)
[9] = after desorption at about 5% RH, Tables 2C-2F (values fit change relative to initial weight)
[10] = after equilibration at about 5% RH, Tables 2C-2F (values fit change relative to initial weight)
[11] = after sorption at about 95% RH, Tables 2C-2F (values fit change relative to initial weight)

solubility ([1]; organic solvent or mixture, 1,4-dioxane): < 3 mg/mL
solubility ([1]; organic solvent or mixture, acetone): < 4 mg/mL
solubility ([1]; organic solvent or mixture, acetonitrile): < 3 mg/mL
solubility ([1]; organic solvent or mixture, chloroform): < 4 mg/mL
solubility ([1]; organic solvent or mixture, dichloromethane): < 3 mg/mL
solubility ([1]; organic solvent or mixture, diisopropyl ether): < 3 mg/mL
solubility ([1]; organic solvent or mixture, dimethylformamide): ≥ 81 mg/mL
solubility ([1]; organic solvent or mixture, ethanol): < 3 mg/mL
solubility ([1]; organic solvent or mixture, ethyl acetate): < 3 mg/mL
solubility ([1]; organic solvent or mixture, hexafluoroisopropanol): ≥ 80 mg/mL
solubility ([1]; organic solvent or mixture, hexanes): < 3 mg/mL
solubility ([1]; organic solvent or mixture, isopropanol): < 3 mg/mL
solubility ([1]; organic solvent or mixture, isopropyl acetate): < 3 mg/mL
solubility ([1]; organic solvent or mixture, methanol): ≥ 16 mg/mL
solubility ([1]; organic solvent or mixture, methyl ethyl ketone): < 3 mg/mL
solubility ([1]; organic solvent or mixture, nitromethane): < 3 mg/mL
solubility ([1]; organic solvent or mixture, tetrahydrofuran): < 3 mg/mL
solubility ([1]; organic solvent or mixture, toluene): < 3 mg/mL
solubility ([1]; organic solvent or mixture, trifluoroethanol): ≥ 81 mg/mL
solubility ([1]; water): ≥ 41 mg/mL
hydrate type from moisture sorption/desorption analysis [2]: variable hydrate
solid form of post moisture sorption/desorption sample by XRPD [2]: form A
molecules of water present for every molecule of compound [2]: approximately 1
Weight Change [2, 6]: −3.77%
Weight Change [2, 7]: −1.44%
initial weight loss from ambient conditions to 5% RH ([2]; moisture sorption/desorption): approximately 1.4%
weight gain between 5% and 95% RH ([2]; moisture sorption/desorption): about 4.00%
Weight Change [2, 8]: 4.00%
XRPD Pattern after RH stress ([3]; 58% RH stress): Form A
XRPD Pattern after RH stress ([3]; 75% RH stress): Form A
XRPD Pattern after RH stress ([3]; 84% RH stress): Form A
relative stability of polymorphs [4]: more stable than form B, C, D, or E
XRPD Pattern after heating ([5]; TGA to 150° C. & recovered): Form A
thermally stable up to ([5]; thermal analysis): about 200 °C
SMILES: N#Cc1ccccc1Cn1c(N2CCC[C@@H](N)C2)ncc(F)c1=O [Form A, tartrate salt of 2-[2-(3-(R)-amino-piperidin-1-yl)-5-fluoro-6-oxo-6H-pyrimidin-1-ylmethyl]-benzonitrile]
phase change upon RH stress ([3]; various RH conditions, room temperature, several weeks): none of these samples had undergone a phase change

solid form of post moisture sorption/desorption sample by XRPD [2]: form C
Weight Change [2, 9]: 0.098%
Weight Change [2, 10]: −0.352%
Weight Change [2, 11]: 8.801%
initial weight loss from ambient conditions to 5% RH ([2]; moisture sorption/desorption): approximately 0.4%
weight gain between 5% and 95% RH ([2]; moisture sorption/desorption): 9.2%
SMILES: N#Cc1ccccc1Cn1c(N2CCC[C@@H](N)C2)ncc(F)c1=O [Form E, tartrate salt of 2-[2-(3-(R)-amino-piperidin-1-yl)-5-fluoro-6-oxo-6H-pyrimidin-1-ylmethyl]-benzonitrile]

Weight Change [2, 9]: 0.433%
Weight Change [2, 10]: 0.156%
Weight Change [2, 11]: 6.013%
SMILES: N#Cc1ccccc1Cn1c(N2CCC[C@@H](N)C2)ncc(F)c1=O [amorphous Form 2, tartrate salt of 2-[2-(3-(R)-amino-piperidin-1-yl)-5-fluoro-6-oxo-6H-pyrimidin-1-ylmethyl]-benzonitrile]

solid form of post moisture sorption/desorption sample by XRPD [2]: form C
Weight Change [2, 6]: −6.30%
Weight Change [2, 7]: −0.50%
initial weight loss from ambient conditions to 5% RH ([2]; moisture sorption/desorption): approximately 0.5%
weight gain between 5% and 95% RH ([2]; moisture sorption/desorption): 6.6%
Weight Change [2, 8]: 6.64%
XRPD Result after slurry [4]: Form A
SMILES: N#Cc1ccccc1Cn1c(N2CCC[C@@H](N)C2)ncc(F)c1=O [Form B, tartrate salt of 2-[2-(3-(R)-amino-piperidin-1-yl)-5-fluoro-6-oxo-6H-pyrimidin-1-ylmethyl]-benzonitrile]

solid form of post moisture sorption/desorption sample by XRPD [2]: form C
Weight Change [2, 9]: −0.899%
Weight Change [2, 10]: −0.873%
Weight Change [2, 11]: 4.744%
molecules of water present for every molecule of compound [2]: approximately 1.5
initial weight loss from ambient conditions to 5% RH ([2]; moisture sorption/desorption): approximately 0.9%
weight gain between 5% and 95% RH ([2]; moisture sorption/desorption): 5.7%
XRPD Result after slurry [4]: Form A
SMILES: N#Cc1ccccc1Cn1c(N2CCC[C@@H](N)C2)ncc(F)c1=O [Form C, tartrate salt of 2-[2-(3-(R)-amino-piperidin-1-yl)-5-fluoro-6-oxo-6H-pyrimidin-1-ylmethyl]-benzonitrile]

XRPD Result after slurry [4]: Form A
SMILES: N#Cc1ccccc1Cn1c(N2CCC[C@@H](N)C2)ncc(F)c1=O [Form D, tartrate salt of 2-[2-(3-(R)-amino-piperidin-1-yl)-5-fluoro-6-oxo-6H-pyrimidin-1-ylmethyl]-benzonitrile]

Weight Change [2, 9]: 0.868%
Weight Change [2, 10]: −0.054%
Weight Change [2, 11]: 13.393%
initial weight gain from ambient conditions to 5% RH ([2]; moisture sorption/desorption): approximately 0.2%
weight gain between 5% and 95% RH ([2]; moisture sorption/desorption): 5.8%
weight gain between 5% and 95% RH ([2]; moisture sorption/desorption, listed as freeze dried Compound I): ~13.5%
XRPD Pattern after RH stress ([3]; 6% RH stress): Amorphous
XRPD Pattern after RH stress ([3]; 33% RH stress): Amorphous
XRPD Pattern after RH stress ([3]; 58% RH stress): Amorphous
XRPD Pattern after RH stress ([3]; 75% RH stress): Form B
XRPD Pattern after RH stress ([3]; 84% RH stress): Pattern F
SMILES: N#Cc1ccccc1Cn1c(N2CCC[C@@H](N)C2)ncc(F)c1=O [amorphous Form 1, tartrate salt of 2-[2-(3-(R)-amino-piperidin-1-yl)-5-fluoro-6-oxo-6H-pyrimidin-1-ylmethyl]-benzonitrile]
solid form of post moisture sorption/desorption sample by XRPD [2]: tentatively identified as containing form A
